15 molecules from PubChem BioAssay AID248 (DTP/NCI, 2004) can be followed below.

The test system of the test is L1210 leukemia ip in BDF1 mice, survival T/C. Description: NCI In Vivo Anticancer Drug Screen. Data for tumor model L1210 Leukemia (intraperitoneal) in B6D2F1 (BDF1) mice. The note with it: endpoint: mean survival time, higher = longer survival. The method, boiled down:
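Survival endpoint. Drug-treated group vs vehicle group, expressed as T divided by C. Tumor passaged by transplantation.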

The mark [1] stands for this setting: dose: 100.0 mg/kg/injection, schedule: Q01DX001 (ip), vehicle: Klucel (hydroxypropylcellulose) (HPC).
Where [2] appears, read: dose: 200.0 mg/kg/injection, schedule: Q01DX001 (ip), vehicle: Klucel (hydroxypropylcellulose) (HPC).
Setting [3] is: dose: 100.0 mg/kg/injection, schedule: Q04DX003 (ip), vehicle: saline.
[4] abbreviates: dose: 200.0 mg/kg/injection, schedule: Q04DX003 (ip), vehicle: saline.
Where [5] appears, read: dose: 25.0 mg/kg/injection, schedule: Q04DX003 (ip), vehicle: saline.
Where [6] appears, read: dose: 50.0 mg/kg/injection, schedule: Q04DX003 (ip), vehicle: saline.
[7] abbreviates: dose: 100.0 mg/kg/injection, schedule: Q01DX009 (ip), vehicle: saline.
The mark [8] stands for this setting: dose: 200.0 mg/kg/injection, schedule: Q01DX009 (ip), vehicle: saline.
[9] abbreviates: dose: 400.0 mg/kg/injection, schedule: Q04DX003 (ip), vehicle: saline.
Where [10] appears, read: dose: 100.0 mg/kg/injection, schedule: Q01DX001 (ip), vehicle: saline.
[11] abbreviates: dose: 200.0 mg/kg/injection, schedule: Q01DX001 (ip), vehicle: saline.
Setting [12] is: dose: 400.0 mg/kg/injection, schedule: Q01DX001 (ip), vehicle: saline.

Several values for one entry are separate records, joined by “and”; a condition that tells them apart may be missing. Identical values can stand only once. Inconclusive results and toxic doses are left out.

Take `Cc1c(O)ccc2c1OCC2=O`: the T/C under setting [1] is 91 % of control; the T/C (dose: 100.0 mg/kg/injection, schedule: Q04DX003 (ip), vehicle: Klucel (hydroxypropylcellulose) (HPC)) was 104 % of control; the T/C under setting [2] is 94 % of control; the T/C (dose: 200.0 mg/kg/injection, schedule: Q04DX003 (ip), vehicle: Klucel (hydroxypropylcellulose) (HPC)) is 98 % of control; the T/C (dose: 400.0 mg/kg/injection, schedule: Q01DX001 (ip), vehicle: Klucel (hydroxypropylcellulose) (HPC)) was 98 % of control; the T/C (dose: 400.0 mg/kg/injection, schedule: Q04DX003 (ip), vehicle: Klucel (hydroxypropylcellulose) (HPC)) was 93 % of control.

As for `O=c1[nH]cnc2c1ncn2C1CCCC1`, the T/C is, setting by setting: (dose: 18.12 mg/kg/injection, schedule: Q01DX Z (ip), vehicle: carboxymethylcellulose (CMC)) 98 % of control; (dose: 36.25 mg/kg/injection, schedule: Q01DX Z (ip), vehicle: carboxymethylcellulose (CMC)) 98 % of control; (dose: 36.25 mg/kg/injection, schedule: Q01DX Z (oral), vehicle: carboxymethylcellulose (CMC)) 110 % of control; (dose: 72.5 mg/kg/injection, schedule: Q01DX Z (ip), vehicle: carboxymethylcellulose (CMC)) 93 % of control; (dose: 72.5 mg/kg/injection, schedule: Q01DX Z (oral), vehicle: carboxymethylcellulose (CMC)) 98 % of control; (dose: 145.0 mg/kg/injection, schedule: Q01DX Z (ip), vehicle: carboxymethylcellulose (CMC)) 98 % of control. The T/C was 102 % of control (dose: 145.0 mg/kg/injection, schedule: Q01DX Z (oral), vehicle: carboxymethylcellulose (CMC)) and 110 % of control (dose: 290.0 mg/kg/injection, schedule: Q01DX Z (oral), vehicle: carboxymethylcellulose (CMC)).

As for `Clc1nc2ccccc2nc1C(Cl)Cl`, the T/C is, setting by setting: under setting [1], 101 % of control; under setting [2], 110 % of control.

On to `Cn1nnc(CC[N+]2(C)CCOCC2)n1`, for which the T/C is, setting by setting: under setting [3], 94 % of control; under setting [4], 96 % of control.

In the case of `Cc1cc(C)nc(NN=C2CC(C)(C)N(O)C(C)(C)C2)n1`, the T/C was 96 % of control under setting [5], 98 % of control under setting [6] and 102 % of control under setting [3].

Take `COc1cc(C(=O)Nc2ccc(N(C)C)cc2)cc(OC)c1OC`: the T/C is, setting by setting: (dose: 25.0 mg/kg/injection, schedule: Q01DX009 (ip), vehicle: saline) 103 % of control; under setting [5], 108 % of control; (dose: 50.0 mg/kg/injection, schedule: Q01DX009 (ip), vehicle: saline) 108 % of control; under setting [6], 97 % of control; under setting [7], 97 % of control; under setting [3], 100 % of control. Moreover, the T/C under setting [8] is 104 % of control, the T/C under setting [4] was 103 % of control and the T/C under setting [9] was 100 % of control.

For the molecule `CC(=O)OC1CCC2C3CCC4=C(Cl)C(=O)CCC4C3CCC12C` (stereo not given), the T/C by setting is: (dose: 100.0 mg/kg/injection, schedule: Q01DX009 (sc), vehicle: steriod suspending solution) 103 % of control; (dose: 200.0 mg/kg/injection, schedule: Q01DX009 (sc), vehicle: steriod suspending solution) 102 % of control; (dose: 400.0 mg/kg/injection, schedule: Q01DX009 (sc), vehicle: steriod suspending solution) 100 % of control.

For `O=C(Nc1cccc(C2=NCCCN2)c1)Nc1cc(C(=O)Nc2ccc(C3=NCCCN3)cc2)ccc1C(=O)Nc1ccc(C2=NCCCN2)cc1`, the T/C is 103 % of control (dose: 0.47 mg/kg/injection, schedule: Q01DX Z (ip), vehicle: saline); 95 % of control (dose: 0.94 mg/kg/injection, schedule: Q01DX Z (ip), vehicle: saline); 104 % of control (dose: 1.88 mg/kg/injection, schedule: Q01DX Z (ip), vehicle: saline); 117 % of control and 265 % of control (dose: 3.75 mg/kg/injection, schedule: Q01DX Z (ip), vehicle: saline); 98 % of control (dose: 7.5 mg/kg/injection, schedule: Q01DX Z (oral), vehicle: saline); 96 % of control (dose: 15.0 mg/kg/injection, schedule: Q01DX Z (ip), vehicle: saline). Further, the T/C reads like this: (dose: 15.0 mg/kg/injection, schedule: Q01DX Z (oral), vehicle: saline) 104 % of control; (dose: 30.0 mg/kg/injection, schedule: Q01DX Z (oral), vehicle: saline) 104 % of control; (dose: 60.0 mg/kg/injection, schedule: Q01DX Z (oral), vehicle: saline) 104 % of control.

`CN(C)N=Nc1ccc(C(=O)O)cc1`: the T/C is 108 % of control (dose: 25.0 mg/kg/injection, schedule: Q01DX009 (ip), vehicle: saline with Tween-80); 113 % of control and 120 % of control (dose: 50.0 mg/kg/injection, schedule: Q01DX009 (ip), vehicle: saline with Tween-80); 108 % of control (dose: 59.0 mg/kg/injection, schedule: Q04DX003 (ip), vehicle: saline); 113 % of control (dose: 88.0 mg/kg/injection, schedule: Q04DX003 (ip), vehicle: saline); 109 % of control under setting [3]; 119 % of control (dose: 133.0 mg/kg/injection, schedule: Q04DX003 (ip), vehicle: saline). For the same molecule, the T/C is 117 % of control (dose: 200.0 mg/kg/injection, schedule: Q01DX009 (ip), vehicle: saline with Tween-80) and 105 % of control under setting [9].

Turning to `Fc1ccc(C=C2c3ccccc3-c3ccccc32)cc1`, the T/C was 109 % of control (dose: 25.0 mg/kg/injection, schedule: Q04DX002 (ip), vehicle: gum acacia); 92 % of control (dose: 50.0 mg/kg/injection, schedule: Q04DX002 (ip), vehicle: gum acacia); 92 % of control (dose: 100.0 mg/kg/injection, schedule: Q04DX002 (ip), vehicle: gum acacia).

As for `Cc1cc(NS(=O)(=O)c2ccc(N=Nc3cc(N=Nc4ccccc4)c(N)nc3N)cc2)nc(C)n1`, the T/C is, setting by setting: under setting [10], 100 % of control; under setting [11], 100 % of control; under setting [12], 105 % of control.

On to `Cc1ccc(-n2c(O)c(N=Nc3ccccc3C)c(=O)n(-c3ccc(Br)cc3)c2=S)cc1`, for which the T/C (dose: 37.5 mg/kg/injection, schedule: Q01DX001 (ip), vehicle: Klucel (hydroxypropylcellulose) (HPC)) is 96 % of control; the T/C (dose: 75.0 mg/kg/injection, schedule: Q01DX001 (ip), vehicle: Klucel (hydroxypropylcellulose) (HPC)) was 101 % of control; the T/C (dose: 150.0 mg/kg/injection, schedule: Q01DX001 (ip), vehicle: Klucel (hydroxypropylcellulose) (HPC)) was 110 % of control.

For `Cc1cc2c(cc1C)N(C(=O)CN1CCSCC1)CC(=O)N2`, the T/C (dose: 75.0 mg/kg/injection, schedule: Q01DX001 (ip), vehicle: saline) is 107 % of control; the T/C (dose: 75.0 mg/kg/injection, schedule: Q04DX003 (ip), vehicle: saline) was 93 % of control; the T/C (dose: 150.0 mg/kg/injection, schedule: Q01DX001 (ip), vehicle: saline) is 98 % of control; the T/C (dose: 150.0 mg/kg/injection, schedule: Q04DX003 (ip), vehicle: saline) is 94 % of control; the T/C (dose: 300.0 mg/kg/injection, schedule: Q01DX001 (ip), vehicle: saline) is 109 % of control; the T/C (dose: 300.0 mg/kg/injection, schedule: Q04DX003 (ip), vehicle: saline) was 91 % of control.

On to `CCCC1(c2ccccc2)CC(=O)NC1=O` (stereo not given), for which the T/C under setting [10] was 100 % of control; the T/C under setting [7] was 106 % of control and 107 % of control; the T/C (dose: 100.0 mg/kg/injection, schedule: Q04DX002 (ip), vehicle: saline) was 100 % of control and 108 % of control; the T/C under setting [3] was 103 % of control; the T/C under setting [11] is 97 % of control; the T/C under setting [8] is 117 % of control and 89 % of control. Moreover, the T/C (dose: 200.0 mg/kg/injection, schedule: Q04DX002 (ip), vehicle: saline) was 105 % of control and 112 % of control; the T/C under setting [4] was 97 % of control; the T/C under setting [12] was 95 % of control; the T/C (dose: 400.0 mg/kg/injection, schedule: Q01DX009 (ip), vehicle: saline) is 98 % of control and 86 % of control; the T/C (dose: 400.0 mg/kg/injection, schedule: Q04DX002 (ip), vehicle: saline) is 105 % of control and 108 % of control; the T/C under setting [9] is 97 % of control.

On to `CCOC(=O)Nc1cc(NCC(O)CN(C)c2ccccc2)c(N)c(NC(=O)OCC)n1` (stereo not given), for which the T/C was 87 % of control (dose: 100.0 mg/kg/injection, schedule: Q01DX001 (ip), vehicle: carboxymethylcellulose (CMC)); 87 % of control (dose: 200.0 mg/kg/injection, schedule: Q01DX001 (ip), vehicle: carboxymethylcellulose (CMC)); 92 % of control (dose: 400.0 mg/kg/injection, schedule: Q01DX001 (ip), vehicle: carboxymethylcellulose (CMC)).
